# Laboratory results from US5616615A, “Enaminone esters” (priority 1995, dated 1997).
# Like-named read-outs stand apart in the source and are kept apart here.
# Assays:
# [1] = tested on: Maximal electroshock seizures; experiment: MES maximal electroshock seizure test, mice ip; type: in vivo; design: TPE (time of peak effect), activity: unit not given here; details: ip; for responders at 100 mg/kg / responders at 300 mg/kg: Mus musculus; for responders at 100 mg/kg: read-out: MES, animals protected/tested (converted); for responders at 300 mg/kg: read-out: MES, animals protected/tested; for TPE (time of peak effect), activity: Phase II
# Procedure: Three tests were performed:
# 1. MES--Electroshock Seizure Test
# (§1) Maximal electroshock seizures are elicited with a 60-cycle alternating current of 50 mA intensity (5-7 times that necessary to elicit minimal electroshock seizures) delivered via corneal electrodes for 0.2 seconds. A drop of 0.9% saline is instilled in the eye prior to application of the electrodes in order to […].
# [2] = tested on: Subcutaneous Pentylenetetrazol seizure; experiment: sc Met subcutaneous pentylenetetrazol (Metrazol) seizure test, mice; type: in vivo; details: Mus musculus, sc, read-out: scMet, animals protected/tested (converted)
# Procedure: The first phase of the ADD Program involved performing tests on male Carworth Farms #1 mice. […] Three tests were performed:
# 2. sc Met--Subcutaneous Pentylenetetrazol (Metrazol^R) Seizure Test
# The animal is observed for 30 minutes. Failure to observe even a threshold seizure (a single episode of clonic spasms of at least 5 seconds duration) is defined as protection and the results are expressed as the number of animals protected/the number of animals tested.
# electroshock seizures = experiment: MES maximal electroshock test, rats ip; type: in vivo; details: for ED50: Rattus norvegicus, ip
# Source text: as §1
# [3] = tested on: Maximal electroshock seizures; experiment: Phase VI oral MES test, rats; type: in vivo; details: oral; for responders at 50 mg/kg: Rattus norvegicus, read-out: MES, animals protected/tested (converted); for ED50: Phase VI, rat
# Source text: as §1
# (§2) This oral screen is designated as phase VI.
# in vivo [4] = details: rat, po; for Tox, animals toxic/tested: 50 mg/kg
# Source text: as §2
# seizures = experiment: Anticonvulsant evaluation (ASP phase I / overall); type: in vivo, mice; details: Mus musculus, ip; Phase I; read-out: ASP Classification
# Outline: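 Male Carworth Farms #1 mice; maximal electroshock seizures elicited by 60-cycle AC, 50 mA, 0.2 s via corneal electrodes after a drop of 0.9% saline in the eye. Animals observed for 30 minutes.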
# in vivo [5] = details: rat, ip
# Procedure: (§3) The rotorod test is used to elevate neurotoxicity. The animal is placed on a 1 inch diameter knurled plastic rod rotating at 6 rpm. […] Neurologic toxicity is defined as the failure of the animal to remain on the rod for 1 minute and the results are expressed as the number of animals protected/the number of animals tested.
# (§4) The toxicity evaluation for the commercial agents as previously indicated was based on the onset of ataxia.
# in vivo [6] = details: mouse, in vivo, ip
# Corneal Kindled rats = tested on: Corneal Kindled rats; design: ED50 (reduction from Stage 5 to Stage 4): unit not given beside the values; details: cited from earlier work; for ED50 (reduction from Stage 5 to Stage 4): data provided by the ADD Program
# Procedure for Neurotoxicity, rats ip: as §3, §4
smiles,measurement,setting,value
COC(=O)C1C(=O)C=C(Nc2ccc(C(F)(F)F)cc2)CC1C (centres unmarked) [Compound 115],responders at 100 mg/kg,"[1]; 0.5 h, 30 min",100%
same,responders at 300 mg/kg,"[1]; 0.5 h, 30 min",100%
same,responders at 100 mg/kg,"[1]; 4 h, 4 h",33.3%
same,responders at 300 mg/kg,"[1]; 4 h, 4 h",100%
same,responders at 100 mg/kg,"[2]; 0.5 h, 30 min",0%
same,responders at 300 mg/kg,"[2]; 0.5 h, 30 min",40%
same,responders at 100 mg/kg,"[2]; 4 h, 4 h",0%
same,responders at 300 mg/kg,"[2]; 4 h, 4 h",0%
same,"MES, animals protected/tested","electroshock seizures; 1.0 mg/kg, 0.50 h",0/8
same,"MES, animals protected/tested","electroshock seizures; 2.0 mg/kg, 0.50 h (Table VII)",1/4
same,"MES, animals protected/tested","electroshock seizures; 2.0 mg/kg, 0.50 h (Table VIII)",3/8
same,"MES, animals protected/tested","electroshock seizures; 2.0 mg/kg, 1.00 h",1/4
same,"MES, animals protected/tested","electroshock seizures; 3.0 mg/kg, 0.50 h",3/8
same,"MES, animals protected/tested","electroshock seizures; 3.5 mg/kg, 0.50 h",4/8
same,"MES, animals protected/tested","electroshock seizures; 4.0 mg/kg, 0.25 h",2/4
same,"MES, animals protected/tested","electroshock seizures; 4.0 mg/kg, 0.50 h (Table VII)",3/4
same,"MES, animals protected/tested","electroshock seizures; 4.0 mg/kg, 0.50 h (Table VIII)",7/8
same,"MES, animals protected/tested","electroshock seizures; 4.0 mg/kg, 1.00 h",3/4
same,"MES, animals protected/tested","electroshock seizures; 4.0 mg/kg, 2.00 h",2/4
same,ED50,"electroshock seizures; 0.5 h, 0.50 h",2.95 mg/kg
same,responders at 50 mg/kg,"[3]; 0.5 h, 0.50 h",100%
same,responders at 50 mg/kg,[3]; 0.25 h,75%
same,responders at 50 mg/kg,[3]; 1.00 h,100%
same,responders at 50 mg/kg,[3]; 2.00 h,100%
same,responders at 50 mg/kg,[3]; 4.00 h,100%
same,"Tox, animals toxic/tested",in vivo [4],0/4
same,minimal effective dose,seizures,< 100 mg/kg
same,TD50,in vivo [5],> 64 mg/kg
same,selectivity ratio,in vivo [5],> 21.7
same,"Tox, animals exhibiting neurotoxicity/tested","Neurotoxicity, rats ip; 8 mg/kg, 0.25-24 h",0/2
same,"Tox, animals exhibiting neurotoxicity/tested","Neurotoxicity, rats ip; 16 mg/kg, 0.25-24 h",0/2
same,"Tox, animals exhibiting neurotoxicity/tested","Neurotoxicity, rats ip; 32 mg/kg, 0.25-24 h",0/2
same,"Tox, animals exhibiting neurotoxicity/tested","Neurotoxicity, rats ip; 64 mg/kg, 0.25-24 h",0.2
"O=C1NC(=O)C(c2ccccc2)(c2ccccc2)N1 [phenytoin, reference compound]","TPE (time of peak effect), activity",[1],2
same,"TPE (time of peak effect), toxicity",in vivo [6],2
same,ED50,[3],29.8 mg/kg
same,TD50,in vivo [4],> 3000 mg/kg
same,ED50 (reduction from Stage 5 to Stage 4),"Corneal Kindled rats; ip, 0.5 h",48.25
same,activity in corneal kindling,Corneal Kindled rats; oral route,inactive
same,ED50 (reduction from Stage 5 to Stage 4),"Corneal Kindled rats; po, 0.5 h",> 100
COC(=O)C1C(=O)C=C(Nc2ccc(Br)cc2)CC1C (centres unmarked) [Compound 113],responders at 100 mg/kg,"[1]; 0.5 h, 30 min",100%
same,responders at 300 mg/kg,"[1]; 0.5 h, 30 min",100%
same,responders at 100 mg/kg,"[1]; 4 h, 4 h",100%
same,responders at 300 mg/kg,"[1]; 4 h, 4 h",100%
same,responders at 100 mg/kg,"[2]; 0.5 h, 30 min",0%
same,responders at 300 mg/kg,"[2]; 0.5 h, 30 min",40%
same,responders at 100 mg/kg,"[2]; 4 h, 4 h",0%
same,responders at 300 mg/kg,"[2]; 4 h, 4 h",0%
same,"MES, animals protected/tested","electroshock seizures; 1.2 mg/kg, 0.25 h",0/8
same,"MES, animals protected/tested","electroshock seizures; 3.6 mg/kg, 0.25 h",5/8
same,"MES, animals protected/tested","electroshock seizures; 4.5 mg/kg, 0.25 h",3/8
same,"MES, animals protected/tested","electroshock seizures; 4.8 mg/kg, 0.25 h",3/4
same,"MES, animals protected/tested","electroshock seizures; 4.8 mg/kg, 0.50 h",3/4
same,"MES, animals protected/tested","electroshock seizures; 4.8 mg/kg, 1.00 h",2/4
same,"MES, animals protected/tested","electroshock seizures; 6.0 mg/kg, 0.25 h",3/4
same,"MES, animals protected/tested","electroshock seizures; 6.0 mg/kg, 0.50 h",2/4
same,"MES, animals protected/tested","electroshock seizures; 6.0 mg/kg, 1.00 h",3/4
same,"MES, animals protected/tested","electroshock seizures; 6.0 mg/kg, 2.00 h",0/4
same,"MES, animals protected/tested","electroshock seizures; 7.0 mg/kg, 0.25 h",7/8
same,ED50,electroshock seizures; 0.25 h,4 mg/kg
same,responders at 50 mg/kg,"[3]; 0.5 h, 0.50 h",100%
same,responders at 50 mg/kg,[3]; 0.25 h,75%
same,responders at 50 mg/kg,[3]; 1.00 h,100%
same,responders at 50 mg/kg,[3]; 2.00 h,100%
same,responders at 50 mg/kg,[3]; 4.00 h,100%
same,"Tox, animals toxic/tested",in vivo [4],0/4
same,minimal effective dose,seizures,< 100 mg/kg
same,TD50 at 2 h,in vivo [5],270 mg/kg
same,selectivity ratio,in vivo [5],67.4
same,"Tox, animals exhibiting neurotoxicity/tested","Neurotoxicity, rats ip; 100 mg/kg, 2.00 h (Table VIII)",0/8
same,"Tox, animals exhibiting neurotoxicity/tested","Neurotoxicity, rats ip; 180 mg/kg, 2.00 h (Table VII)",2/4
same,"Tox, animals exhibiting neurotoxicity/tested","Neurotoxicity, rats ip; 180 mg/kg, 2.00 h (Table VIII)",2/8
same,"Tox, animals exhibiting neurotoxicity/tested","Neurotoxicity, rats ip; 180 mg/kg, 4.00 h",1/8
same,"Tox, animals exhibiting neurotoxicity/tested","Neurotoxicity, rats ip; 220 mg/kg, 0.25 h",0/8
same,"Tox, animals exhibiting neurotoxicity/tested","Neurotoxicity, rats ip; 220 mg/kg, 0.50 h",0/8
same,"Tox, animals exhibiting neurotoxicity/tested","Neurotoxicity, rats ip; 220 mg/kg, 1.00 h",1/8
same,"Tox, animals exhibiting neurotoxicity/tested","Neurotoxicity, rats ip; 220 mg/kg, 2.00 h",4/8
same,"Tox, animals exhibiting neurotoxicity/tested","Neurotoxicity, rats ip; 220 mg/kg, 2.00 h (Table VIII)",4/8
same,"Tox, animals exhibiting neurotoxicity/tested","Neurotoxicity, rats ip; 220 mg/kg, 6.00 h",0/8
same,"Tox, animals exhibiting neurotoxicity/tested","Neurotoxicity, rats ip; 220 mg/kg, 24.00 h",0/8
same,"Tox, animals exhibiting neurotoxicity/tested","Neurotoxicity, rats ip; 440 mg/kg, 2.00 h",6/8
"NC(=O)N1c2ccccc2C=Cc2ccccc21 [carbamazepine, reference compound]","TPE (time of peak effect), activity",[1],0.5
same,"TPE (time of peak effect), toxicity",in vivo [6],0.5
same,ED50,[3],8.5 mg/kg
same,"ED50, corneal kindling",Corneal Kindled rats; comparative commercial product,28.90 mg/kg
same,ED50 (reduction from Stage 5 to Stage 4),"Corneal Kindled rats; po, 1 h, 30 min",28.90
